According to paper PMC8924211 (Nature Communications, 2022):
Positions count from the first letter of the chain named.

Experiments:
Assay in all cases: Calcium assay, HEK293/Gα16 cells, GAL2R mutants
Type in all cases: cell-based
[1] = molecular target: T1, GAL2R mutants (Homo sapiens, UniProt O43603, I256A); conditions: GAL2R I2566.55A
T1 construct: expressed in transfected cells; host or cells: HEK293
T1 sequence (O43603 1-387 I256A): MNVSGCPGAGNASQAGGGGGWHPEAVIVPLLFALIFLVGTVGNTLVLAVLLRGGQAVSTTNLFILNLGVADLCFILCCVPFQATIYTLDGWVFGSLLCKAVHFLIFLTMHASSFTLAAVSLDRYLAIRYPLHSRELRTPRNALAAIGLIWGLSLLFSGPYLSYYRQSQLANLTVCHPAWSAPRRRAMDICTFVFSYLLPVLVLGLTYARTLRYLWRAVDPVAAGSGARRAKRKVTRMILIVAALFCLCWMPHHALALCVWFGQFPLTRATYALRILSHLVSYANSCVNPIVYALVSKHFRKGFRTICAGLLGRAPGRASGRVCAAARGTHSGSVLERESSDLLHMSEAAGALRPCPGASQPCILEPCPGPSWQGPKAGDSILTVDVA

[2] = molecular target: T2, GAL2R mutants (Homo sapiens, UniProt O43603, F264A); conditions: GAL2R F264ECL3A
T2 construct: expressed in transfected cells; host or cells: HEK293
T2 sequence (O43603 1-387 F264A): T1 sequence (O43603 1-387 I256A) with A256I, F264A

[3] = molecular target: T3, GAL2R mutants (Homo sapiens, UniProt O43603, L255A); conditions: GAL2R L2556.54A
T3 construct: expressed in transfected cells; host or cells: HEK293
T3 sequence (O43603 1-387 L255A): T1 sequence (O43603 1-387 I256A) with L255A, A256I

[4] = molecular target: T4, GAL2R mutants (Homo sapiens, UniProt O43603, Y86A); conditions: GAL2R Y862.65A
T4 construct: expressed in transfected cells; host or cells: HEK293
T4 sequence (O43603 1-387 Y86A): T1 sequence (O43603 1-387 I256A) with Y86A, A256I

[5] = molecular target: T5, GAL2R mutants (Homo sapiens, UniProt O43603, L172A); conditions: GAL2R L172ECL2A
T5 construct: expressed in transfected cells; host or cells: HEK293
T5 sequence (O43603 1-387 L172A): T1 sequence (O43603 1-387 I256A) with L172A, A256I

[6] = response of 100 μM spexin compared to WT, mean ± S.E.M.

In the case of spexin, the Emax [1, 6] was 67.24±0.5%, the Emax ([1]; spexin, replicate 1) was 66.4324% and the EC50 ([1]; spexin, replicate 2) was 437.9 nM. For the same substance, the Emax ([1]; spexin, replicate 2) was 67.278%, the EC50 ([1]; spexin, replicate 3) was 924.3 nM and the Emax ([1]; spexin, replicate 3) was 68.0243%. It also gave an Emax [2, 6] of 40.26±1.3%, an Emax ([2]; spexin, replicate 1) of 42.8699% and an Emax ([2]; spexin, replicate 2) of 39.5775%. For the same substance, the Emax ([2]; spexin, replicate 3) was 38.3476%, the Emax [3, 6] was 26.65±5.9% and the Emax ([3]; spexin, replicate 1) was 16.7892%. The EC50 ([3]; spexin, replicate 2) was 245.4 nM, the Emax ([3]; spexin, replicate 2) was 26.0726% and the EC50 ([3]; spexin, replicate 3) was 845.1 nM. The Emax ([3]; spexin, replicate 3) was 37.0775%, the Emax ([4]; response of 100 μM spexin compared to WT) was “NR (NR, no response, refers to response < 10% compared to WT receptor (spexin at 100 μM))” and the Emax ([4]; spexin, replicate 1) was “no response”. The Emax ([4]; spexin, replicate 2) was “no response”, the Emax ([4]; spexin, replicate 3) was “no response” and the Emax [5, 6] was 33.56±1.2%. For the same substance, the EC50 ([5]; spexin, replicate 1) was 3125 nM, the Emax ([5]; spexin, replicate 1) was 31.8616% and the EC50 ([5]; spexin, replicate 2) was 10790 nM. For the same substance, the Emax ([5]; spexin, replicate 2) was 33.0538%, the EC50 ([5]; spexin, replicate 3) was 12080 nM and the Emax ([5]; spexin, replicate 3) was 35.752%.
